Experimental data from US20220386613A1, “WEED CONTROL METHOD AND MIXED AGROCHEMICAL COMPOSITION FOR SOIL TREATMENT” (KUMIAI CHEMICAL INDUSTRY CO., LTD., priority 2019, published 2022).

Legend:
Assay type in all cases: in vivo
[1] = system: barnyard grass (Echinochloa crus-galli); assay: Herbicidal effect evaluation test on weeds by soil treatment (barnyard grass); details: Day 18 after treatment (4.2 L)
Method: (§1) In a greenhouse having an average temperature of 25° C. (highest: 30° C., lowest: 25° C.), field soil (sandy loam) was filled in a plastic pot of 11 cm in length, width and depth, and twenty seeds of each of barnyard grass (Echinochloa crus-galli) and redroot amaranth (Amaranthus retroflexus) were sowed and covered with the same soil at a thickness of 1 cm. […] On the day of this chemical treatment, a total of 2-mm rainfall was artificially applied in 30 minutes using an artificial rain maker. Thereafter, barnyard grass and redroot amaranth were grown and, on Day 18 after the treatment, the growth conditions of barnyard grass and redroot amaranth were observed and examined. The rates of reduction in the plant height and the number of leaves relative to an untreated area were each calculated, and the herbicidal effect was determined as a value obtained by adding the thus calculated rates of reduction and dividing this value by 2 for evaluation of the degree of the herbicidal effect. For example, the herbicidal effect is 90% when the plant height was decreased by 90% and the number of leaves was reduced from 10 to 1, while the herbicidal effect is 75% when the plant height was decreased by 70% and the number of leaves was reduced from 5 to 1. It is noted here that, in Table 1, each value of the herbicidal effect represents an average value of two herbicidal effect evaluation tests.

[2] = system: redroot amaranth (Amaranthus retroflexus); assay: Herbicidal effect evaluation test on weeds by soil treatment (redroot amaranth); details: Day 18 after treatment (4 L)
Method: as §1

soybean (Glycine max) = assay: Evaluation test of crop injury to soybean by soil treatment; details: 15-mm rainfall
Method: In a greenhouse having an average temperature of 25° C. (highest: 30° C., lowest: 25° C.), field soil (sandy loam) was filled in a plastic pot of 11 cm in length, width and depth, and a single seed of soybean (Glycine max) was sowed and covered with the same soil at a thickness of 2 cm. […] On the day of this chemical treatment, a total of 15-mm rainfall was artificially applied in 30 minutes using an artificial rain maker. Thereafter, the soybean was grown and, on Day 15 and Day 39 after the treatment or on Day 13 and Day 26 after the treatment, the growth conditions of the soybean were observed and examined in terms of the plant height and the number of leaves. The rates of reduction in the plant height and the number of leaves relative to an untreated area were each determined, and the thus determined rates of reduction were added and then divided by 2 to calculate the growth inhibition rate for evaluation of the degree of crop injury. […] It is noted here that, in Tables 2 to 5, each growth inhibition rate represents an average value of two crop injury evaluation tests. […] The values observed in the test each indicated an effect lower than the expected value calculated by the following Colby formula at a preferable dosage (see S. R. Colby, Weeds 15(1967), pp. 20-22). Colby's formula defines the expected value (E) as follows for the use of a combination of two chemical agents: (E)=X+Y−XY/100 wherein X represents the growth inhibition rate of an agent a at a concentration of x, and Y represents the growth inhibition rate of an agent b at a concentration of y.

[3] = active component 160 g/ha (sulfentrazone)
[4] = active component 320 g/ha (sulfentrazone)
[5] = active component 25 g/ha (saflufenacil)
[6] = active component 50 g/ha (saflufenacil)
[7] = active component 70 g/ha (flumioxazin)
[8] = active component 140 g/ha (flumioxazin)

Cc1nn(-c2cc(NS(C)(=O)=O)c(Cl)cc2Cl)c(=O)n1C(F)F [Sulfentrazone, sulfentrazone]
Herbicidal effect, barnyard grass [1, 3]: 100% | Herbicidal effect, barnyard grass [1, 4]: 100% | Herbicidal effect, redroot amaranth [2, 3]: 100% | Herbicidal effect, redroot amaranth [2, 4]: 100%

CC(C)N(C)S(=O)(=O)NC(=O)c1cc(-n2c(=O)cc(C(F)(F)F)n(C)c2=O)c(F)cc1Cl [Saflufenacil, saflufenacil]
Herbicidal effect, barnyard grass [1, 5]: 15% | Herbicidal effect, barnyard grass [1, 6]: 65% | Soybean growth inhibition rate (soybean (Glycine max); Table 4, 25 g/ha (saflufenacil), Day 13 after treatment): 20% | Soybean growth inhibition rate (soybean (Glycine max); Table 4, 25 g/ha (saflufenacil), Day 26 after treatment): 30% | Soybean growth inhibition rate (soybean (Glycine max); Table 5, 50 g/ha (saflufenacil), Day 13 after treatment): 30% | Soybean growth inhibition rate (soybean (Glycine max); Table 5, 50 g/ha (saflufenacil), Day 26 after treatment): 30% | Herbicidal effect, redroot amaranth [2, 5]: 100% | Herbicidal effect, redroot amaranth [2, 6]: 100%

C#CCN1C(=O)COc2cc(F)c(N3C(=O)C4=C(CCCC4)C3=O)cc21 [Flumioxazin, flumioxazin]
Herbicidal effect, barnyard grass [1, 7]: 100% | Herbicidal effect, barnyard grass [1, 8]: 100% | Soybean growth inhibition rate (soybean (Glycine max); Table 2, 70 g/ha (flumioxazin), Day 15 after treatment): 15% | Soybean growth inhibition rate (soybean (Glycine max); Table 2, 70 g/ha (flumioxazin), Day 39 after treatment): 5% | Soybean growth inhibition rate (soybean (Glycine max); Table 3, 140 g/ha (flumioxazin), Day 15 after treatment): 25% | Soybean growth inhibition rate (soybean (Glycine max); Table 3, 140 g/ha (flumioxazin), Day 39 after treatment): 10% | Soybean growth inhibition rate (soybean (Glycine max); Table 4, 70 g/ha (flumioxazin), Day 13 after treatment): 8% | Soybean growth inhibition rate (soybean (Glycine max); Table 4, 70 g/ha (flumioxazin), Day 26 after treatment): 10% | Herbicidal effect, redroot amaranth [2, 7]: 100% | Herbicidal effect, redroot amaranth [2, 8]: 100%
